Results taken from US7964594B1, “Amino oxazine derivatives” (Hoffmann-La Roche Inc., priority 2009, dated 2011).
pIC50: −log10 of the molar value.

What follows are molecules tested against T1, BACE2 (Rattus norvegicus, UniProt Q6IE75) (assay: Assay for BACE inhibition by measuring cellular TMEM27 cleavage (INS-TMEM27 cells, ELISA of shed TMEM27)). Details: inhibition of human TMEM27 cleavage by endogenous cellular BACE2 in Ins1e rat cell line; ELISA of culture medium.
T1 construct: endogenous cellular BACE2 in the Ins1e rat cell line; endogenous in cells; host or cells: INS-TMEM27 (INS1e-derived rat insulinoma cell line with doxycycline-inducible full-length hTMEM27)
T1 sequence (Q6IE75 63-514): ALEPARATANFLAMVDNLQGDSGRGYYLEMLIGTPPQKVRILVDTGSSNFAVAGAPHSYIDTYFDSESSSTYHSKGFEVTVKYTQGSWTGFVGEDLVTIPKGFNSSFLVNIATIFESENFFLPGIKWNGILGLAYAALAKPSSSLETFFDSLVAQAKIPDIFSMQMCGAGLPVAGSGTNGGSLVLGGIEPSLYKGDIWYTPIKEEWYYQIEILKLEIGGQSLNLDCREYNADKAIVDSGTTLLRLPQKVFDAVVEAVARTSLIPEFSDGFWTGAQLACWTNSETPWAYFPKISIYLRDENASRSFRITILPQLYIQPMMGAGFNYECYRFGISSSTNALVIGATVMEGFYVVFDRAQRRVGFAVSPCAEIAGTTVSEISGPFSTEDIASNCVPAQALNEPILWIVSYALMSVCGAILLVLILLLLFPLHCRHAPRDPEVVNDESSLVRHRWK
Format: cell-based
Text: Assay for BACE Inhibition by Measuring Cellular TMEM27 Cleavage
The assay uses the principle of inhibition of human TMEM27 cleavage by endogenous cellular BACE2 in the Ins1e rat cell line and shedding from the cell surface into the culture medium, followed by detection in an ELISA assay. Inhibition of BACE2 prevents the cleavage and shedding in a dose-dependent manner.
The stable cell line “INS-TMEM27” represents an INS1e-derived cell line with inducible expression (using the TetOn system) of full-length hTMEM27 in a doxycycline-dependent manner. The cells were cultured throughout the experiment in RPMI1640+Glutamax (Invitrogen) Penicillin/Streptomycin, 10% Fetal bovine serum, […], […], 100 micrograms/ml G418 and 100 microgram/ml hygromycin and were grown in adherent culture at 37° C. in a standard CO2 cell culture incubator.
INS-TMEM27 cells were seeded in 96-well plates. After 2 days in culture, BACE2 inhibitor was added in a range of concentrations as required by the assay and after a further two hours, doxycycline was added to a final concentration of 500 ng/ml. The cells were incubated for a further 46 hours and the supernatant harvested for detection of shed TMEM27.
An ELISA assay (using a pair of mouse anti-human-TMEM27 antibodies, raised against the extracellular domain of TMEM27) was used for detection of TMEM27 in the culture medium. An IC50 for BACE2 inhibition was calculated using the ELISA readout for each inhibitor concentration with standard curve-fitting software XLfit (IDBS) for the Excel spreadsheet program.

Q: `C[C@@]1(c2cc(NC(=O)c3n[nH]cc3Cl)ccc2F)CCOC(N)=N1` [Example 64] was tested. Which pIC50 did it give?
A: Its pIC50 is 6.33.

Q: `C[C@@]1(c2cc(NC(=O)c3cccc(Cl)n3)ccc2F)CCOC(N)=N1` [Example 32, 6-Chloro-pyridine-2-carboxylic acid [3-((S)-2-amino-4-methyl-5,6-dihydro-4H-[1,3]oxazin-4-yl)-4-fluoro-phenyl]-amide] was tested. Which pIC50 did it give?
A: The pIC50 was 8.40.

Q: With `COc1cccnc1C(=O)Nc1ccc(F)c([C@]2(C)CCOC(N)=N2)c1` [Example 27, 3-Methoxy-pyridine-2-carboxylic acid [3-((S)-2-amino-4-methyl-5,6-dihydro-4H-[1,3]oxazin-4-yl)-4-fluoro-phenyl]-amide] as the molecule, how does the pIC50 read?
A: The pIC50 was 7.64.
